Reference: patent US12195427B2, “MASP-2 inhibitors and methods of use” (priority 2018, dated 2025)
Counter-ions that a name gives are not always drawn.

Target: MASP-2 CCP2-SP (Homo sapiens (Human), UniProt O00187)
Experiment: MASP-2 co-crystallization, X-ray crystallography and structure analysis (H-bonds, van der Waals contacts);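 as to Ligand-pharmacophore element distance, pharmacophore element C2: distance from averaged pharmacophore element to bound ligand; missing value means element absent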;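 as to Ligand-pharmacophore element distance, pharmacophore element C3: distance from averaged pharmacophore element to bound ligand; missing value means element absent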;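 as to Ligand-pharmacophore element distance, pharmacophore element C4: distance from averaged pharmacophore element to bound ligand; missing value means element absent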;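 as to Ligand-pharmacophore element distance, pharmacophore element C5: distance from averaged pharmacophore element to bound ligand; missing value means element absent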
Set-up: van der Waals contact distance, MASP-2 HIS 483 atom CD2 / van der Waals contact distance, MASP-2 HIS 483 atom NE2 / van der Waals contact distance, SER 654 C to compound atom / van der Waals contact distance, SER 654 O to compound atom / van der Waals contact distance, TRP 655 C to compound atom / van der Waals contact distance, MASP-2 GLY 528 atom CA / van der Waals contact distance TRP 655 atom CZ3 / van der Waals contact distance TRP 655 atom N / van der Waals contact distance TRP 655 atom CE3 / van der Waals contact distance GLY 656 atom C / van der Waals contact distance GLY 656 atom CA / van der Waals contact distance GLY 656 atom O / van der Waals contact distance, MASP-2 TYR 607 atom CD1 / van der Waals contact distance, MASP-2 PRO 606 atom O / d(C3,CA1) / d(CA1,N1)2 / d(H4,O1) / d(H4,O2) / d(O1,O2) / d(CA1,O2) / d(CA6,O1) / d(CA6,O2) / d(CA1,C5) / d(O2,H3) / d(N2,C2) / d(CA5,N2) / d(N2,C4) / d(N2,C6) / d(N2,CA3) / d(N2,O3) / d(O4,H2): unit not given beside the values
Conditions: for Ligand-pharmacophore element distance, pharmacophore element C2 / Ligand-pharmacophore element distance, pharmacophore element C3 / Ligand-pharmacophore element distance, pharmacophore element C4 / Ligand-pharmacophore element distance, pharmacophore element C5 / Ligand-pharmacophore element distance, pharmacophore element C6 / Ligand-pharmacophore element distance, pharmacophore element C7 / Ligand-pharmacophore element distance, pharmacophore element CA1 / Ligand-pharmacophore element distance, pharmacophore element CA2 / Ligand-pharmacophore element distance, pharmacophore element CA3 / Ligand-pharmacophore element distance, pharmacophore element CA4 / Ligand-pharmacophore element distance, pharmacophore element CA5 / Ligand-pharmacophore element distance, pharmacophore element CA6: Table A4-1; for d(N2,C2) / d(N2,CA2) / d(O2,H3) / d(O2,N2): Table A5-2 pharmacophore distance, S3/S4 region; for a(O2, N2, C2) / a(O2, N2, CA2) / a(O1, O2, H3) / a(O1, O2, N2): Table A6-2 pharmacophore angle
Summary of the method: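 Human MASP-2 CCP2-SP (± 6His) expressed in E. coli and crystallized; crystals soaked in crystallization solution containing inhibitor, cryoprotected with 20% glycerol or frozen directly. Synchrotron data at 1.0 wavelength; molecular replacement from 1Q3X, partial refinement; one ligand pose analyzed; LigPlot+ contacts may include H-bonds.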

[1] = Table A5-1 pharmacophore: distance between elements, S2/S1 region
[2] = Table A8-6, nearest protein atom in cell to the left
[3] = Table A7-1, between pharmacophore elements of the bound compound
[4] = Table A7-2, between pharmacophore elements of the bound compound

MASP-2 CCP2-SP, sequence (O00187 445-686): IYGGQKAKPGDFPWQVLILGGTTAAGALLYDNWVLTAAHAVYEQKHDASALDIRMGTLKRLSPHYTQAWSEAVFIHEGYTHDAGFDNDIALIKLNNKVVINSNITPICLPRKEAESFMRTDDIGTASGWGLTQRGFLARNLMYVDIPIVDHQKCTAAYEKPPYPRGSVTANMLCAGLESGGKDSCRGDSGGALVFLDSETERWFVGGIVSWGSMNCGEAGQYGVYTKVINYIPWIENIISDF
MASP-2 CCP2-SP, sequence (O00187 364-432 partner): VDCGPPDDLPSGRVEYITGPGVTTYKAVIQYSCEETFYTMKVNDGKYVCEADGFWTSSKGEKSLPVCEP

SMILES: C[C@H](NC(=O)[C@H](N)CCCc1ccccc1)C(=O)NCc1ccc(C(=N)N)cc1.Cl.Cl [1042_3]
- Ligand-pharmacophore element distance, pharmacophore element C2: 2.05
- Ligand-pharmacophore element distance, pharmacophore element C3: 0
- Ligand-pharmacophore element distance, pharmacophore element C4: 0
- Ligand-pharmacophore element distance, pharmacophore element C5: 0
- Ligand-pharmacophore element distance, pharmacophore element C6: 0
- Ligand-pharmacophore element distance, pharmacophore element C7: 0
- Ligand-pharmacophore element distance, pharmacophore element CA1: 0.5
- Ligand-pharmacophore element distance, pharmacophore element CA2: 1.65
- Ligand-pharmacophore element distance, pharmacophore element CA3: 0
- Ligand-pharmacophore element distance, pharmacophore element CA4: 0
- Ligand-pharmacophore element distance, pharmacophore element CA5: 0
- Ligand-pharmacophore element distance, pharmacophore element CA6: 0
- d(CA1,N1) [1]: 3.63
- d(CA1,O2) [1]: 4.54
- d(H4,O2) [1]: 4.90
- d(N2,C2): 3.55
- d(N2,CA2): 6.60
- d(O2,H3): 6.75
- d(O2,N2): 4.11
- a(O2, N2, C2): 129.44
- a(O2, N2, CA2): 145.75
- Pharmacophore protein distance to MET_658 (first MET_658 column) (Table A8-6, 6th residue column, nearest protein atom in cell to the left): 2.74
- Pharmacophore protein distance to MET_658 (second MET_658 column) (Table A8-6, 9th residue column, nearest protein atom in cell to the left): 4.20
- Pharmacophore protein distance to GLY_528 [2]: 2.99
- Pharmacophore protein distance to PHE_529 [2]: 2.42
- Pharmacophore protein distance to PRO_608 [2]: 4.06
- Pharmacophore protein distance to SER_611 [2]: 2.32
- Pharmacophore protein distance to TRP_655 (Table A8-6, pharmacophore elements C6, CA3, O3, H1, nearest protein atom in cell to the left): 3.21

SMILES: Cc1nc(N)ccc1CNC(=O)[C@H](C)NC(=O)[C@H]1C[C@@H](c2cccc3ccccc23)CCN1.Cl.Cl [1297_4]
- Ligand-pharmacophore element distance, pharmacophore element C2: 0.31
- Ligand-pharmacophore element distance, pharmacophore element C3: 0.18
- Ligand-pharmacophore element distance, pharmacophore element C4: 0
- Ligand-pharmacophore element distance, pharmacophore element C5: 0
- Ligand-pharmacophore element distance, pharmacophore element C6: 0
- Ligand-pharmacophore element distance, pharmacophore element C7: 0
- Ligand-pharmacophore element distance, pharmacophore element CA1: 0.48
- Ligand-pharmacophore element distance, pharmacophore element CA2: 0.24
- Ligand-pharmacophore element distance, pharmacophore element CA3: 0
- Ligand-pharmacophore element distance, pharmacophore element CA4: 0.98
- Ligand-pharmacophore element distance, pharmacophore element CA5: 0
- Ligand-pharmacophore element distance, pharmacophore element CA6: 0
- d(C3,CA1) [1]: 2.87
- d(CA1,N1)2 [1]: 1.37
- d(CA1,O1) [1]: 4.44
- d(CA1,O2) [1]: 3.67
- d(H4,O1) [1]: 4.35
- d(H4,O2) [1]: 3.67
- d(O1,O2) [1]: 3.50
- d(N2,C2): 1.47
- d(N2,CA2): 5.72
- d(O2,H3): 4.02
- d(O2,N2): 2.76
- a(C3, CA1, O1) (Table A6-1 pharmacophore angle): 149.60
- a(CA1, O1, O2) (Table A6-1 pharmacophore angle): 103.60
- a(O1, O2, H4) (Table A6-1 pharmacophore angle): 129.06
- a(N1, CA1, O1) b) (Table A6-1 pharmacophore angle, Methyl-amino-pyridine compounds): 174.41
- a(O1, O2, H3): 145.24
- a(O1, O2, N2): 143.80
- a(O2, N2, C2): 131.10
- a(O2, N2, CA2): 156.08
- Pharmacophore torsion angle a(C3, CA1, O1, H4) [3]: 28.23
- Pharmacophore torsion angle a(H4, O1, O2, H3) [3]: 51.40
- Pharmacophore torsion angle a(H4, O1, O2, N2) [3]: 142.36
- Pharmacophore torsion angle a(N1, CA1, O1, H4) [3]: 26.25
- Pharmacophore torsion angle a(O1, H4, O2, CA1) [3]: −89.51
- Pharmacophore torsion angle a(O1, O2, N2, C2) [3]: 110.29
- Pharmacophore torsion angle a(O1, O2, N2, CA2) [4]: 126.11
- Pharmacophore torsion angle a(O1, O2, N2, CA4) [4]: 105.94

SMILES: C[C@H](NC(=O)[C@H]1C[C@@H](c2ccccc2)CCN1)C(=O)NCc1cc(Cl)ccc1O.Cl [1078_6]
- Ligand-pharmacophore element distance, pharmacophore element C2: 1.09
- Ligand-pharmacophore element distance, pharmacophore element C3: 0
- Ligand-pharmacophore element distance, pharmacophore element C4: 0
- Ligand-pharmacophore element distance, pharmacophore element C5: 0.48
- Ligand-pharmacophore element distance, pharmacophore element C6: 0
- Ligand-pharmacophore element distance, pharmacophore element C7: 0
- Ligand-pharmacophore element distance, pharmacophore element CA1: 1.31
- Ligand-pharmacophore element distance, pharmacophore element CA2: 0.65
- Ligand-pharmacophore element distance, pharmacophore element CA3: 0
- Ligand-pharmacophore element distance, pharmacophore element CA4: 0
- Ligand-pharmacophore element distance, pharmacophore element CA5: 0
- Ligand-pharmacophore element distance, pharmacophore element CA6: 0
- d(CA1,C5) [1]: 3.11
- d(CA1,O1) [1]: 5.90
- d(CA1,O4) [1]: 2.75
- d(H4,O1) [1]: 2.75
- d(O4,H2) [1]: 0.98
- d(N2,C2): 1.49
- d(N2,CA2): 5.49
- a(C5, CA1, O1) (Table A6-1 pharmacophore angle): 152.72
- a(CA1, O4, H2) (Table A6-1 pharmacophore angle): 126.69
- a(O1, CA1, O4) (Table A6-1 pharmacophore angle): 67.49
- Pharmacophore torsion angle a(C5, CA1, O1, H4) [3]: −22.50

SMILES: N=C(N)c1ccc(CNC(=O)C(CF)NC(=O)[C@H](N)CCc2ccccc2)cc1 (stereo partly drawn) [compound 1050, (2R)-2-Amino-N-(1-((4-carbamimidoylbenzyl)amino)-3-fluoro-1-oxopropan-2-yl)-4-phenylbutanamide Dihydrochloride]
- H-bond distance to MASP-2 GLY 656 atom N (Table A1 (H-Bonds), GLY 656 N): 3.18
- H-bond distance to MASP-2 GLY 656 atom O (Table A1 (H-Bonds), GLY 656 O): 2.58
- H-bond distance to MASP-2 SER 654 atom O (Table A1 (H-Bonds), SER 654 O): 3.03
- H-bond distance to MASP-2 SER 657 atom O (Table A1 (H-Bonds), SER 657 O): 2.86
- van der Waals contact distance, MASP-2 PHE 529 atom CD1 (Table A2-3): 3.61
- van der Waals contact distance, MASP-2 PHE 529 atom CE1 (Table A2-3): 3.56
- van der Waals contact distance, MASP-2 PHE 529 atom CZ (Table A2-3): 3.88
- van der Waals contact distance, MASP-2 amino acid atom to compound atom (Table A2-5: TYR 607 (CE1, CE2, OH), PRO 608 (CD, CG), SER 611 (CA)): 3.68
- van der Waals contact distance, MASP-2 amino acid atom to compound atom (Table A2-9, ARG 630, AA atoms CG, CZ): 3.66
- van der Waals contact distance, MASP-2 amino acid atom to compound atom (Table A2-9 second part, ARG 630, AA atoms N, NE, NH1): 3.66
- van der Waals contact distance, VAL 653 CG1 to compound atom (Table A2-11): 3.74
- van der Waals contact distance, SER 654 O to compound atom (Table A2-12): 3.72
- van der Waals contact distance TRP 655 atom CZ3 (Table A2-13, MASP-2 TRP 655 CZ3): 3.81
- van der Waals contact distance TRP 655 atom N (Table A2-13, MASP-2 TRP 655 N): 3.74
- Ligand-pharmacophore element distance, pharmacophore element C2: 6.95
- Ligand-pharmacophore element distance, pharmacophore element C3: 0
- Ligand-pharmacophore element distance, pharmacophore element C4: 0
- Ligand-pharmacophore element distance, pharmacophore element C5: 0
- Ligand-pharmacophore element distance, pharmacophore element C6: 0
- Ligand-pharmacophore element distance, pharmacophore element C7: 0
- Ligand-pharmacophore element distance, pharmacophore element CA1: 0.57
- Ligand-pharmacophore element distance, pharmacophore element CA2: 0.33
- Ligand-pharmacophore element distance, pharmacophore element CA3: 0
- Ligand-pharmacophore element distance, pharmacophore element CA4: 0
- Ligand-pharmacophore element distance, pharmacophore element CA5: 0
- Ligand-pharmacophore element distance, pharmacophore element CA6: 0
- d(CA1,N1) [1]: 3.47
- d(CA1,O1) [1]: 4.10
- d(CA1,O2) [1]: 4.29
- d(H4,O1) [1]: 4.58
- d(H4,O2) [1]: 4.38
- d(O1,O2) [1]: 3.01
- d(N2,C2): 6.69
- d(N2,CA2): 5.73
- d(O2,H3): 2.72
- d(O2,N2): 2.76
- a(CA1, O1, O2) (Table A6-1 pharmacophore angle): 114.34
- a(O1, O2, H4) (Table A6-1 pharmacophore angle): 140.76
- A(N1, CA1, O1) a) (Table A6-1 pharmacophore angle, all compounds with protonatable center N1 except Methyl-amino-pyridine): 160.78
- a(O1, O2, H3): 137.51
- a(O1, O2, N2): 140.97
- a(O2, N2, C2): 159.29
- a(O2, N2, CA2): 153.66
- Pharmacophore torsion angle a(H4, O1, O2, H3) [3]: 102.21
- Pharmacophore torsion angle a(H4, O1, O2, N2) [3]: 123.45
- Pharmacophore torsion angle a(N1, CA1, O2, H4) [3]: −131.38
- Pharmacophore torsion angle a(O1, H4, O2, CA1) [3]: −58.32
- Pharmacophore torsion angle a(O1, O2, N2, C2) [3]: 66.94
- Pharmacophore torsion angle a(O1, O2, N2, CA2) [4]: 147.29
